Laboratory results published in PubChem BioAssay AID330 (DTP/NCI, 2004).
Several values for one entry are separate records, joined by “and”; a condition that tells them apart may be missing. Equal values may be shown once. Inconclusive results and toxic doses are left out.

Test system: P388 leukemia ip, CD2F1 mice, survival T/C
Test: NCI In Vivo Anticancer Drug Screen. Data for tumor model P388 Leukemia (intraperitoneal) in CD2F1 (CDF1) mice
Settings: endpoint: median survival time, higher = longer survival
How it was run: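 Mice carrying the transplanted tumor received test compound or vehicle. Survival was recorded in each group, and the value is the treated-group measurement divided by that of the vehicle-treated control group.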

[1] = dose: 50.0 mg/kg/injection, schedule: Q01DX009 (ip), vehicle: Klucel (hydroxypropylcellulose) (HPC)
[2] = dose: 100.0 mg/kg/injection, schedule: Q01DX009 (ip), vehicle: Klucel (hydroxypropylcellulose) (HPC)
[3] = dose: 200.0 mg/kg/injection, schedule: Q01DX009 (ip), vehicle: Klucel (hydroxypropylcellulose) (HPC)
[4] = dose: 6.25 mg/kg/injection, schedule: Q01DX009 (ip), vehicle: saline with Tween-80
[5] = dose: 50.0 mg/kg/injection, schedule: Q01DX009 (ip), vehicle: saline
[6] = dose: 100.0 mg/kg/injection, schedule: Q01DX009 (ip), vehicle: saline
[7] = dose: 200.0 mg/kg/injection, schedule: Q01DX009 (ip), vehicle: saline
[8] = dose: 12.5 mg/kg/injection, schedule: Q01DX009 (ip), vehicle: saline
[9] = dose: 25.0 mg/kg/injection, schedule: Q01DX009 (ip), vehicle: saline
[10] = dose: 50.0 mg/kg/injection, schedule: Q01DX005 (ip), vehicle: saline
[11] = dose: 50.0 mg/kg/injection, schedule: Q01DX005 (ip), vehicle: Klucel (hydroxypropylcellulose) (HPC)
[12] = dose: 100.0 mg/kg/injection, schedule: Q01DX005 (ip), vehicle: Klucel (hydroxypropylcellulose) (HPC)
[13] = dose: 200.0 mg/kg/injection, schedule: Q01DX005 (ip), vehicle: Klucel (hydroxypropylcellulose) (HPC)
[14] = dose: 12.5 mg/kg/injection, schedule: Q01DX009 (ip), vehicle: saline with Tween-80
[15] = dose: 50.0 mg/kg/injection, schedule: Q01DX005 (ip), vehicle: saline with Tween-80
[16] = dose: 100.0 mg/kg/injection, schedule: Q01DX005 (ip), vehicle: saline with Tween-80
[17] = dose: 200.0 mg/kg/injection, schedule: Q01DX005 (ip), vehicle: saline with Tween-80
[18] = dose: 100.0 mg/kg/injection, schedule: Q04DX002 (ip), vehicle: saline with Tween-80
[19] = dose: 200.0 mg/kg/injection, schedule: Q04DX002 (ip), vehicle: saline with Tween-80
[20] = dose: 400.0 mg/kg/injection, schedule: Q04DX002 (ip), vehicle: saline with Tween-80
[21] = dose: 100.0 mg/kg/injection, schedule: Q01DX009 (ip), vehicle: saline with Tween-80
[22] = dose: 200.0 mg/kg/injection, schedule: Q01DX009 (ip), vehicle: saline with Tween-80
[23] = dose: 12.5 mg/kg/injection, schedule: Q01DX005 (ip), vehicle: saline

COC(=O)c1nnc(C(=O)OC)c2c1c1ccccc1n2C(=O)c1ccccc1
T/C (dose: 60.0 mg/kg/injection, schedule: Q01DX005 (ip), vehicle: saline with Tween-80): 105 % of control | T/C (dose: 120.0 mg/kg/injection, schedule: Q01DX005 (ip), vehicle: saline with Tween-80): 93 % of control | T/C (dose: 240.0 mg/kg/injection, schedule: Q01DX005 (ip), vehicle: saline with Tween-80): 91 % of control

O=C(c1ccccc1)c1c(-c2ccccc2)c(C(=O)c2ccccc2)n2ccccc12
T/C [1]: 108 % of control | T/C [2]: 105 % of control | T/C [3]: 93 % of control

N=C(N)c1ccc(-c2ccc(-c3ccc(C(=N)N)cc3)o2)cc1
T/C (dose: 3.13 mg/kg/injection, schedule: Q01DX009 (ip), vehicle: saline with Tween-80): 94 % of control | T/C [4]: 102 % of control

O=C1CCC(CBr)(C(=O)O)O1 (stereo not drawn)
T/C [5]: 102 % of control | T/C [6]: 111 % of control | T/C [7]: 100 % of control

CNC(=O)CC(N)C(=O)O (stereo not drawn)
T/C [8]: 96 % of control | T/C [9]: 94 % of control | T/C [5]: 101 % of control | T/C (dose: 50.0 mg/kg/injection, schedule: Q01DX009 (ip), vehicle: water): 105 % of control | T/C [6]: 98 % of control | T/C (dose: 100.0 mg/kg/injection, schedule: Q01DX009 (ip), vehicle: water): 105 % of control | T/C [7]: 113 % of control | T/C (dose: 200.0 mg/kg/injection, schedule: Q01DX009 (ip), vehicle: water): 109 % of control

O=C(Nc1ccc(NC(=O)c2ccc(C3=NCCCN3)cc2)cc1)c1ccc(C2=NCCCN2)cc1
T/C [8]: 168 % of control | T/C (dose: 12.5 mg/kg/injection, schedule: Q04DX003 (ip), vehicle: saline with Tween-80): 118 % of control | T/C [9]: 250 % of control | T/C [5]: 163 % of control

CCCNC1(N(C)C)N=C(N(C)C)N=C(N(C)C)O1 (stereo not drawn)
T/C [10]: 102 % of control | T/C (dose: 100.0 mg/kg/injection, schedule: Q01DX005 (ip), vehicle: saline): 95 % of control

C(CCSCCCCSCCCCCC1=NCCN1)CCC1=NCCN1
T/C [11]: 94 % of control | T/C [12]: 95 % of control | T/C [13]: 99 % of control

COc1ccc2c(c1OC(C)=O)-c1cc(OC(C)=O)cc3c1C(C2)N(C(=O)CBr)CC3 (stereo not drawn)
T/C [4]: 104 % of control | T/C [14]: 104 % of control

CCOc1cccc(/C=N/NC(=O)C(N)Cc2ccc(O)cc2)c1O (stereo not drawn)
T/C [15]: 99 % of control | T/C [16]: 99 % of control | T/C [17]: 99 % of control

CC12CC(CS(=O)C1)c1ccccc1N2 (stereo not drawn)
T/C [18]: 97 % of control | T/C [19]: 101 % of control | T/C [20]: 100 % of control

CC(=O)OC1CCC2C3C=CC4=C/C(=N/NC(N)=S)CCC4(C)C3CCC12C (stereo not drawn)
T/C (dose: 100.0 mg/kg/injection, schedule: Q01DX001 (ip), vehicle: saline): 100 % of control | T/C (dose: 200.0 mg/kg/injection, schedule: Q01DX001 (ip), vehicle: saline): 98 % of control | T/C (dose: 400.0 mg/kg/injection, schedule: Q01DX001 (ip), vehicle: saline): 99 % of control

CCCN(CCC)CC(O)c1cc2cc(C(F)(F)F)cc(C(F)(F)F)c2c2cc(Cl)c(Cl)cc12 (stereo not drawn)
T/C [4]: 102 % of control | T/C [14]: 101 % of control | T/C (dose: 25.0 mg/kg/injection, schedule: Q01DX009 (ip), vehicle: saline with Tween-80): 94 % of control | T/C [21]: 91 % of control | T/C [22]: 91 % of control

O=C(NC1=C(N2CC2)C(=O)C(NC(=O)OCCO)=C(N2CC2)C1=O)OCCO
T/C (dose: 0.18 mg/kg/injection, schedule: Q01DX009 (ip), vehicle: saline): 174 % of control | T/C (dose: 0.39 mg/kg/injection, schedule: Q01DX009 (ip), vehicle: saline): 170 % of control | T/C (dose: 0.75 mg/kg/injection, schedule: Q01DX009 (ip), vehicle: saline): 218 % of control | T/C (dose: 1.5 mg/kg/injection, schedule: Q01DX009 (ip), vehicle: saline): 169 % of control and 175 % of control | T/C (dose: 3.0 mg/kg/injection, schedule: Q01DX009 (ip), vehicle: saline): 202 % of control and 211 % of control | T/C (dose: 6.0 mg/kg/injection, schedule: Q01DX009 (ip), vehicle: saline): 239 % of control and 258 % of control

O=C(OCCOCCN1CCCCC1)C1c2ccccc2Sc2ccc(Cl)cc21 (stereo not drawn)
T/C [23]: 100 % of control | T/C (dose: 25.0 mg/kg/injection, schedule: Q01DX005 (ip), vehicle: saline): 105 % of control | T/C [10]: 100 % of control and 98 % of control

Cc1c(C(=O)O)nc(C(Br)(Br)Br)[nH]c1=O
T/C (dose: 12.5 mg/kg/injection, schedule: Q01DX009 (ip), vehicle: distilled water + Tween-80): 94 % of control | T/C (dose: 25.0 mg/kg/injection, schedule: Q01DX009 (ip), vehicle: distilled water + Tween-80): 118 % of control | T/C (dose: 50.0 mg/kg/injection, schedule: Q01DX009 (ip), vehicle: distilled water + Tween-80): 118 % of control | T/C (dose: 100.0 mg/kg/injection, schedule: Q01DX009 (ip), vehicle: distilled water + Tween-80): 107 % of control | T/C (dose: 200.0 mg/kg/injection, schedule: Q01DX009 (ip), vehicle: distilled water + Tween-80): 107 % of control

C[n+]1c2ccccc2nc2c(N)cc(N)cc21
T/C (dose: 31.3 mg/kg/injection, schedule: Q04DX003 (ip), vehicle: saline sonified): 104 % of control | T/C (dose: 83.0 mg/kg/injection, schedule: Q04DX003 (ip), vehicle: saline with Tween-80): 113 % of control | T/C (dose: 125.0 mg/kg/injection, schedule: Q04DX003 (ip), vehicle: saline with Tween-80): 122 % of control | T/C (dose: 188.0 mg/kg/injection, schedule: Q04DX003 (ip), vehicle: saline with Tween-80): 100 % of control

CN(OC(=O)C(C)(C)C)C(=O)C(C)(C)C
T/C [16]: 106 % of control | T/C [17]: 105 % of control | T/C (dose: 400.0 mg/kg/injection, schedule: Q01DX005 (ip), vehicle: saline with Tween-80): 108 % of control

Oc1ccccc1C=Nc1ccccc1N=Cc1ccccc1O.[Zn]
T/C [1]: 97 % of control | T/C [2]: 98 % of control | T/C [3]: 95 % of control

NNC(=O)c1cccc2ccccc12
T/C (dose: 3.12 mg/kg/injection, schedule: Q01DX005 (ip), vehicle: saline): 101 % of control | T/C (dose: 6.25 mg/kg/injection, schedule: Q01DX005 (ip), vehicle: saline): 104 % of control | T/C [23]: 98 % of control

O=c1c2cc(O)ccc2oc2cc(O)cc(O)c12
T/C (dose: 10.0 mg/kg/injection, schedule: Q01DX009 (ip), vehicle: saline): 104 % of control | T/C (dose: 20.0 mg/kg/injection, schedule: Q01DX009 (ip), vehicle: saline): 111 % of control | T/C (dose: 40.0 mg/kg/injection, schedule: Q01DX009 (ip), vehicle: saline): 111 % of control | T/C (dose: 80.0 mg/kg/injection, schedule: Q01DX009 (ip), vehicle: saline): 105 % of control

NC(Cc1cccs1)C(=O)O (stereo not drawn)
T/C [21]: 100 % of control | T/C (dose: 100.0 mg/kg/injection, schedule: Q04DX003 (ip), vehicle: saline with Tween-80): 109 % of control | T/C [22]: 100 % of control | T/C (dose: 200.0 mg/kg/injection, schedule: Q04DX003 (ip), vehicle: saline with Tween-80): 100 % of control | T/C (dose: 400.0 mg/kg/injection, schedule: Q01DX009 (ip), vehicle: saline with Tween-80): 100 % of control | T/C (dose: 400.0 mg/kg/injection, schedule: Q04DX003 (ip), vehicle: saline with Tween-80): 100 % of control

Nc1ncnc2c1ncn2C1CC(O)C(COC(c2ccccc2)(c2ccccc2)c2ccccc2)O1 (stereo not drawn)
T/C [11]: 95 % of control | T/C [12]: 91 % of control | T/C [13]: 86 % of control

O=C(O)c1cn(O)ccc1=O
T/C [15]: 94 % of control | T/C [16]: 100 % of control | T/C [17]: 97 % of control

CC(=O)Nc1ccc(S(=O)(=O)n2c(=O)oc3cc(Br)ccc32)cc1
T/C (dose: 25.0 mg/kg/injection, schedule: Q01DX005 (ip), vehicle: Klucel (hydroxypropylcellulose) (HPC)): 94 % of control | T/C [11]: 87 % of control and 90 % of control | T/C [12]: 87 % of control and 90 % of control

N#C/C(=C/c1cc(Br)c2c(c1)OCO2)C(N)=O
T/C [18]: 100 % of control | T/C [19]: 98 % of control | T/C [20]: 97 % of control
